The text below walks through data of patent US20210060016A1, “ANTICANCER AGENT” (JAPANESE FOUNDATION FOR CANCER RESEARCH, priority 2017, published 2021).

A value given as a limit tells only on which side of the number the result lay.

Assay [1] has as its system human colorectal cancer cell line COLO-320DM. Description: MTT assay, combination of test compound and other anticancer agents. Type of assay: cell-based. As to the method: The ratio of residual cells in treatment of the human colorectal cancer cell line COLO-320DM with a combination of the compound prepared in each Compound Example (test compound or tankyrase inhibitory compound) and each of the anticancer agents was measured to evaluate the cell killing effect of the combination on the human colorectal cancer cell line COLO-320DM. The combinations of test compounds and anticancer agents are as follows.
(Example 8): combination of the compound prepared in Compound Example 5 and temozolomide, melphalan, gemcitabine, cytarabine (Ara-C), fluorouracil (5-FU), pemetrexed, mercaptopurine, methotrexate, irinotecan (SN-38), etoposide (VP-16), actinomycin D, daunorubicin, doxorubicin, bleomycin, mitoxantrone, oxaliplatin, carboplatin or cisplatin (Example 9): combination of the compound prepared in Compound Example 110 (G007-LK) and irinotecan (SN-38) (Example 10): combination of the compound prepared in Compound Example 11 and irinotecan (SN-38) (Example 11): combination of the compound prepared in Compound Example 19 and irinotecan (SN-38) (Example 12): combination of the compound prepared in Compound Example 101 and irinotecan (SN-38) (Example 13): combination of the compound prepared in Compound Example 1 and irinotecan (SN-38) (Example 14): combination of the compound prepared in Compound Example 113 and irinotecan (SN-38)
Commercially available compounds were used for temozolomide (manufactured by Sigma-Aldric), melphalan (manufactured by Signa-Aldrich), gemcitabine (Gemcitabine hydrochloride; manufactured by Sigma-Aldric), cytarabine (Cytosine β-D-arabinofuranoside (Ara-C); manufactured by Sigma-Aldrich), fluorouracil (5-Fluorouracil (5-FU); manufactured by Sigma-Aldrich), pemetrexed (Pemetrexed disodium heptahydrate; manufactured by Sigma-Aldrich), mercaptopurine (6-Mercaptopurine monohydrate; manufactured by Sigma-Aldrich), methotrexate (Methotrexate hydrate; manufactured by Sigma-Aldrich), irinotecan (7-Ethyl-10-hydroxycamptothecin (SN-38); manufactured by Sigma-Aldrich), etoposide (Etoposide (VP-16); manufactured by Enzo Life Sciences, Inc.), actinomycin D (manufactured by nacalai tesque), daunorubicin (Daunorubicin hydrochloride; Calbiochem), doxorubicin (Doxorubicin hydrochloride; manufactured by Sigma-Aldrich), bleomycin (Bleomycin sulfate; manufactured by Enzo Life Sciences, Inc.), mitoxantrone (Mitoxantrone dihydrochloride; manufactured by Sigma-Aldrich), oxaliplatin (manufactured by Sigma-Aldrich), carboplatin (manufactured by Sigma-Aldrich) and cisplatin (manufactured by Enzo Life Sciences, Inc.).
First, the human colorectal cancer cell line COLO-320DM was suspended in RPMI1640 medium (hereinafter, medium) containing inactivated 10% fetal bovine serum, and the cells were seeded in a 96-well microplate at 350 cells (75 μL) per well. The cells were subjected to stationary culture overnight in a CO2 incubator at 37° C. Thereafter, in Example 8, a medium (25 μL) containing a combination of the compound prepared in Compound Example 5 and each of the anticancer agents was added in triplicate in such a manner that the final concentrations of the test compound (compound prepared in Compound Example 5) were 0 nM or 30 nM and that the final concentrations of each anticancer agent were those shown in Table 14. In Examples 9 to 14, a medium (25 μL) containing a combination of the compound prepared in each of Compound Examples and each of the anticancer agents was added in triplicate in such a manner that the final concentrations of the test compound were 0 nM or those shown in FIGS. 9 to 14. As a control, 25 μL of a medium containing only dimethyl sulfoxide (DMSO) which is a solvent was added. […]
(In general: Formazan colour is commonly taken as a measure of viable cells.)

Another assay has as its target T1, tankyrase 2 (Homo sapiens, UniProt Q9H2K2).
T1 construct: tankyrase 2 (613-1, 116aa, ANK5+SAM+PARP); made in house; host or cells: cell-free protein expression system
Description: Tankyrase inhibitory activity test (ELISA, auto-poly(ADP-ribosyl)ation), TNKS2. The assay is classed as biochemical. As to conditions: Flag-tagged tankyrase 2 (ANK5+SAM+PARP), read-out: TNKS2 (inhibitory activity against tankyrase 2), IC50 rating. As to the method:
(§1) The enzymatic activity of tankyrase 1 and the enzymatic activity of tankyrase 2 were measured by the ELISA method based on assessment of auto-poly(ADP-ribosyl)ation to evaluate the tankyrase inhibitory activity of the compound prepared in each of Compound Examples (test compound) (inhibitory activity against tankyrase 1 (TNKS1) and inhibitory activity against tankyrase 2 (TNKS2)). First, Flag-tagged tankyrase 1 (1,024-1, 327aa, SAM+PARP) and tankyrase 2 (613-1, 116aa, ANK5+SAM+PARP) were synthesized with a cell-free protein expression system, and diluted with a Tris buffer solution (50 mM Tris-HCl (pH 8.0), 150 mM NaCl, 10% glycerol). 50 μL of the diluted tankyrase 1 or tankyrase 2 was added to a plate with an anti-FLAG M2 monoclonal antibody immobilized thereon (Anti-FLAG High-Sensitivity M2-Coated Plate) (Sigma-Aldrich), and the mixture was left to stand overnight at 4° C. Thereafter, the plate was washed four times with a PBS (PBST) buffer containing 0.1% TritonX-100.
(§2) Subsequently, the test compound diluted with an assay buffer (50 mM Tris-HCl (pH 8.0), 4 mM MgCl2, 0.2 mM DTT) (DMSO was used as a control) was added to each well of the plate, and the mixture was left to stand at room temperature for 10 minutes. Thereafter, a biotin-labeled NAD solution (225 μM NAD, 25 μM 6-Biotin-17-NAD (Travigen, Inc.)) was added and mixed as a donor substrate, and the mixture was reacted at 30° C. for 45 minutes. To blank wells was added distilled water instead of the biotin-labeled NAD solution. After the reaction, the plate was washed with a PBST buffer four times. Thereafter, HRP (horseradish peroxidase)-labeled streptavidin (Travigen, Inc.) was diluted with a PBS buffer by 1,000 times, and added to each well, and the mixture was reacted at room temperature for 20 minutes. The plate was washed with a PBST buffer four times, a chemiluminescent substrate solution TACS-Sapphire (Travigen, Inc.) was then added to each well, the mixture was reacted at room temperature for 20 minutes, and thechemiluminescence intensity was measured using a chemiluminescence measuring apparatus.
(§3) The residual enzymatic activity in the presence of the test compound was determined from the following expression. On the basis of the residual enzymatic activity at each of multiple concentrations of the test compound, the enzyme inhibitory activity was calculated in terms of a 50%-inhibition concentration (IC50 value) using data analysis software Origin (LightStone Corp.). Residual activity (%)={(chemiluminescence intensity with test compound added)−(chemiluminescence intensity of blank)}/{(chemiluminescence intensity of control)−(chemiluminescence intensity of blank))
In general terms: In an ELISA, binding on a coated surface is turned into a signal by an enzyme label.

Assay [2] deals with human colorectal cancer cell line COLO-320DM. Briefly: Cell proliferation inhibitory activity test (Celltiter-Glo). The assay is classed as cell-based. As to conditions: 96 hours, read-out: COLO-320DM (cell proliferation inhibitory activity), G150 rating. As for the experimental part: The cell proliferation inhibitory activity of the compound, which had been prepared in each of Compound Examples, against the human colorectal cancer cell line COLO-320DM was evaluated by Celltiter-Glo Luminescent Cell Viability Assay (Promega Corporation; G7573). COLO-320DM cells were cultured in RPMI-1640 medium containing 2 mM glutamine (Wako Pure Chemical Industries, Ltd; 189-02025) supplemented with 10% fetal bovine serum. The cultured cells were washed with PBS, and then dissociated with trypsin/EDTA, and a cell solution with 3×10^4 cells/mL was prepared.
Subsequently, the cell solution was seeded in a 96-well microplate (Thermo/Nunc Company; 136101) in an amount of 70 μL per well, and cultured overnight under the condition of 37° C. and 5% COz. The next day, a test compound solution obtained by diluting the test compound (DMSO solution) with a cell culture medium (final concentration of DMSO was 1%) was added in an amount of 10 μL per well, and the mixture was reacted under the condition of 37° C. and 5% CO2 for 96 hours (a 1% DMSO solution was used as a control). Thereafter, a Celltiter-Glo Luminescent Cell Viability Assay reagent was added (Promega Corporation; G7573) in an amount of 80 μL per well, the mixture was stirred with a shaker for 2 minutes while light was blocked with an aluminum foil, and the mixture was incubated at room temperature for 10 minutes.
Thereafter, a luminescence signal was measured with a luminometer (Biotech Company; Synergy). The ratio of cell proliferation in each compound addition group to cell proliferation in a control group containing no test compound solution, where cell proliferation in the control group is 100%, was determined, and the value of a compound concentration necessary for suppressing the amount of residual cells to 50% of that in the control (G150) was calculated as the cell proliferation inhibitory activity. For the COLO-320DM (cell proliferation inhibitory activity against COLO-320DM) of each test compound as measured through the above-mentioned method, a test compound having a G150 value of less than 1 μM was rated “A”, a test compound having a G150 value of 1 μM or more and less than 10 μM was rated “B”, a test compound having a G150 value of 10 μM or more was rated “C”, and an unevaluated test compound was designated as “NT”.

The target of a further assay is T2, tankyrase 1 (Homo sapiens, UniProt O95271).
T2 construct: tankyrase 1 (1,024-1, 327aa, SAM+PARP); made in house; host or cells: cell-free protein expression system
Briefly: Tankyrase inhibitory activity test (ELISA, auto-poly(ADP-ribosyl)ation), TNKS1. Type of assay: biochemical. The following applies: Flag-tagged tankyrase 1 (SAM+PARP), read-out: TNKS1 (inhibitory activity against tankyrase 1), IC50 rating. As for the experimental part: as §1, §2, §3

Setting [3] is: Examples 9 to 14, COLO-320DM: test compound added at the concentration shown in FIGS. 9 to 14 to irinotecan (SN-38), survival with only irinotecan = 100%.

T2 sequence (O95271 1024-1327): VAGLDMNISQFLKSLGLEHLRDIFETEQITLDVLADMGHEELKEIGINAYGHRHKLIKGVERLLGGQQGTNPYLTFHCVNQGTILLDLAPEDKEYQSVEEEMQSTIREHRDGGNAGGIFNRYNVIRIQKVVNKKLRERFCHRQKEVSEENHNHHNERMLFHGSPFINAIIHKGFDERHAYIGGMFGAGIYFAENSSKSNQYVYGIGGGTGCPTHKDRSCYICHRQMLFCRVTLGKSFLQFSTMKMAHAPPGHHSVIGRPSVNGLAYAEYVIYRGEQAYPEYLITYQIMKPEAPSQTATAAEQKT
T1 sequence (Q9H2K2 613-1166): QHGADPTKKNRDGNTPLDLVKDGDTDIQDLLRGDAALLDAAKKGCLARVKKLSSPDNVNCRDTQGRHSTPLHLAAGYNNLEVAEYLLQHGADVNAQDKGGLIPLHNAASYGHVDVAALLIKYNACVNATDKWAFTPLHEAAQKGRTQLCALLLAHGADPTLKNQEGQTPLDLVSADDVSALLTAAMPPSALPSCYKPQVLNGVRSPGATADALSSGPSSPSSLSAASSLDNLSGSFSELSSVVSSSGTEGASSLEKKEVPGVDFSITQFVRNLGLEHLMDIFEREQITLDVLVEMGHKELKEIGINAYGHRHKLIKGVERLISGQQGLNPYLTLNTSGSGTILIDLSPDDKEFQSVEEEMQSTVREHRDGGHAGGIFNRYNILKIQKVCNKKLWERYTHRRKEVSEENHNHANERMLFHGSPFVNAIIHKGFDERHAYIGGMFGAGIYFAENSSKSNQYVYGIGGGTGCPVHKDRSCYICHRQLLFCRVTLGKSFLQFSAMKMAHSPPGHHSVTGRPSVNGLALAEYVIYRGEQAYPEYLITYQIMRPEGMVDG

Turning to `C[C@@H]1CN(c2cc(F)c3c(c2)N(C)C(=O)C32CCN(c3nc4c(c(=O)[nH]3)CCCN4C)CC2)C[C@H](C)O1` [compound 19], in assay [1] (setting [3]), the cell survival rate entry was “about 50%”.
As to `CN1CCN(c2cc(F)c3c(c2)N(C)C(=O)C32CCN(c3nc4c(c(=O)[nH]3)CCCN4C)CC2)CC1` [compound 5, 4-Fluoro-1-methyl-1′-(8-methyl-4-oxo-3,4,5,6,7,8-hexahydropyrido [2,3-d]pyrimidin-2-yl)-6-(4-methylpiperazin-1-yl)spiro [indolin-3,4′-piperidin]-2-one], the cell survival rate result in assay [1] (Example 8, COLO-320DM: test compound further added at 30 nM to each anticancer agent (temozolomide ... cisplatin), survival with only the anticancer agent = 100%) was “about 50%”.
In the case of `CCOc1ccc(-c2n[nH]cc2C2NC(=O)c3cccc(C)c3N2)cc1` (stereo not drawn) [Compound Example 103, 2-[5-(4-Ethoxyphenyl)-1H-pyrazol-4-yl]-8-methyl-2,3-dihydro-1H-quinazolin-4-one], the IC50 on tankyrase 2 was below 0.02 µM; in assay [2], 1 to 10 µM; at tankyrase 1, below 0.02 µM.
With `O=c1[nH]c(N2CCC3(CC2)CN(CCO)c2cc(F)cc(F)c23)nc2c1CCCC2` [Example 1], the IC50 is below 0.02 µM on tankyrase 2, 1 to 10 µM in assay [2] and below 0.02 µM on tankyrase 1.
`CN1CCCc2c1nc(N1CCC3(CC1)C(=O)N(C)c1cc(N4CCC(C(=O)O)CC4)cc(F)c13)[nH]c2=O` [compound 11, 1-[4-Fluoro-1-methyl-1′-(8-methyl-4-oxo-3,4,5,6,7,8-hexahydropyrido [2,3-d]pyrimidin-2-yl)-2-oxospiro[indolin-3,4′-piperidin]-6-yl]piperidin-4-carboxylic acid]: the cell survival rate result in assay [1] (setting [3]) was “about 50%”.
Consider `CN1CCCc2c1nc(N1CCC3(CC1)C(=O)N(C)c1c(OC4CCOC4)ccc(Cl)c13)[nH]c2=O` (stereo not drawn) [Example 13], for which the IC50 at tankyrase 2 is below 0.02 µM; in assay [2], below 1 µM; at tankyrase 1, below 0.02 µM.
